Experimental data published in ChEMBL document CHEMBL2029268, “A new high-yield synthetic route to PET CB1 radioligands [11C]OMAR and its analogs” (Bioorg Med Chem Lett, 2012).

Assay: Octanol-water distribution coefficient, log P of the compound by HPLC analysis
Format: physicochemical

## [11CH3]Oc1ccc(-c2c(C#N)c(C(=O)NN3CCCC3)nn2-c2ccccc2Br)cc1
  logP: 2.03

## [11CH3]Oc1ccc(-c2c(C#N)c(C(=O)NN3CCCCC3)nn2-c2ccccc2Br)cc1
  logP: 2.29
